Test results taken from paper PMC12195740, “Discovery of Novel Imidazothiazole-Based Hydroxamic Acid Derivatives as Potent Indoleamine 2,3-Dioxygenase 1 and Histone Deacetylase 6 Dual Inhibitors” (Molecules, 2025).

Tests used:
HDAC11 = target: T1, HDAC11 (Homo sapiens, UniProt Q96DB2); assay: HDAC isoform selectivity assay, HDAC11; format: biochemical; conditions: read-out: HDAC11 % inhibition rate at 10 μM
T1 sequence (Q96DB2 1-347): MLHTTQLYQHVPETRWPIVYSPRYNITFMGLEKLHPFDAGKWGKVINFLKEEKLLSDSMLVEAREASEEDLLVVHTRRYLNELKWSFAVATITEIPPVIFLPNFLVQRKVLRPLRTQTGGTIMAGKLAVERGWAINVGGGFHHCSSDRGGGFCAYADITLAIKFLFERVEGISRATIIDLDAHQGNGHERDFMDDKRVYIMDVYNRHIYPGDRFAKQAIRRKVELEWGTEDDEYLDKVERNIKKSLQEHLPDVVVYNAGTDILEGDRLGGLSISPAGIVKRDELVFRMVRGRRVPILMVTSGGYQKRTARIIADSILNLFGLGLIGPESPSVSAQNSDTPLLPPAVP

[1] = test system: Ac-α-tubulin (substrate for HDAC6); assay: Western blot of Ac-α-tubulin in HCT-116 cells; format: cell-based; conditions: HCT-116, 5−20 μM, 24 h
Description: Since HDACs regulate the acetylation status of histone and nonhistone proteins in cells, the acetylation levels of histone H3 (a known substrate for HDACs 1, 2, and 3) and α-tubulin (a known substrate for HDAC6) are frequently used as markers of cellular HDAC activity. […] HCT-116 cells were incubated with compound 10e (5−20 μM) for 24 h, and the levels of acetylation of histone H3 and α-tubulin were detected by the Western blot. […]
with 75% cold ethanol at 4 °C overnight. After that, fixed cells were washed with PBS. Then, cells were isolated by centrifugation and stained with propidium iodide (KeyGEN BioTECH, China) for 30 min. The samples were measured using flow cytometry and analyzed by Flowjo software.
Section S 1.6 Western blot assay
Total cell lysates from cultured HCT-116 cells after treatment with compound 10e as mentioned earlier were obtained by lysing the cells in ice-cold RIPA buffer with protease and phosphatase inhibitor and stored at -20°C for future use. The protein concentrations were quantified by the Bradford method (Bio-Rad) using a Multimode Varioscan instrument (Thermo Fischer Scientific). […]
The in vivo antitumor activity of compound 10e was evaluated in the mouse colon carcinoma cell line CT-26 in BALB/c mice as described previously. […]

rhIDO1 = target: T2, rhIDO1 (Homo sapiens, UniProt P14902); assay: IDO1 inhibition assay; format: biochemical; conditions: means ± S.D. of three independent experiments
T2 construct: purchased
T2 sequence (P14902 whole entry): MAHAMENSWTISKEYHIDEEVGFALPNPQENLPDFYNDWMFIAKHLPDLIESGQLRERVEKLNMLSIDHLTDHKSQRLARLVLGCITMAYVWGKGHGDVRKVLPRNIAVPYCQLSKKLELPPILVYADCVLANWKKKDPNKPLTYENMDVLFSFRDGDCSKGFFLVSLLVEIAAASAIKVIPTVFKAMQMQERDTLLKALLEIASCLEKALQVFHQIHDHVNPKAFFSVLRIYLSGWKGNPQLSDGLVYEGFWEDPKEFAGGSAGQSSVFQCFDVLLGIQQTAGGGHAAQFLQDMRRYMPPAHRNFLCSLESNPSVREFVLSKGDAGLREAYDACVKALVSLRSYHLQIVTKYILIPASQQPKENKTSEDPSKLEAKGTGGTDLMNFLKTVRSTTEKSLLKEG
Description: Section S1. Biological assays […]
Section S 1.2 IDO1 inhibition assays
IDO1 inhibition assays were carried out according to the manufacturers’ procedures, as described previously. The standard assay mixture (100 μL) contained 50 mM of potassium phosphate buffer (pH = 6.5), 10 mM ascorbate, 10 μM methylene blue, 100 μg/mL catalase, 1 mM L-tryptophan and 10 μg/mL of rhIDO1. The plate was incubated at 37 °C in a dark environment, and reactions were terminated after 60 min by the addition of 50 μL of fluorogenic developer solution and further incubated at 45 °C in dark for 3 h. Then, the plate was allowed to cool to room temperature for at least 1 h. After centrifugation at 1500g for 5 min at 20 °C, the fluorescence […]
M1000 Pro, Tecan US, Morrisville, NC) in an end-point mode. […]

`O=C(CCCCCCNc1ccc(NC(=O)c2cnc3scc(-c4ccc(Br)cc4)n23)cc1)NO` [Compound 10e, 3-(4-Bromophenyl)-N-{4-[(7-(hydroxyamino)-7-oxoheptyl)amino]phenyl}imidazo[2,1-b]thiazole-5-carboxamide] was tested, and the inhibition at 10 µM (HDAC11) was 24.4%, the Ac-α-tubulin levels [1] was “markedly increased” and the IC50 (rhIDO1) was 0.086 ± 0.02 µM.
